# Experimental data taken from ChEMBL document CHEMBL5727810, “GLP-1 receptor agonists and uses thereof” (2020).
# What was measured:
# [1] = CHO GLP-1R Clone H6 Assay 1: GLP-1R-mediated agonist activity was determined with a cell-based functional assay utilizing an HTRF (Homogeneous Time-Resolved Fluorescence) cAMP detection kit (cAMP HI Range Assay Kit; CisBio cat #62AM6PEJ) that measures cAMP levels in the cell. The method is a competitive immunoassay between native cAMP produced by the cells and exogenous cAMP labeled with the dye …
# Description: The method is a competitive immunoassay between native cAMP produced by the cells and exogenous cAMP labeled with the dye d2. The tracer binding is visualized by a mAb anti-cAMP labeled with Cryptate. […] A 1 mL sample of the cell suspension in growth media was counted on a Becton Dickinson ViCell to determine cell viability and cell count per mL. […] Following the 30 minute incubation, 10 μL of labeled d2 cAMP and 10 μL of anti-cAMP antibody (both diluted 1:20 in cell lysis buffer; as described in the manufacturer's assay protocol) were added to each well of the assay plate. […] Raw data were converted to nM cAMP by interpolation from a cAMP standard curve (as described in the manufacturer's assay protocol) and the percent effect was determined relative to a saturating concentration of the full agonist GLP-17-36 (1 μM) included on each plate. EC50 determinations were made from agonist dose-response curves analyzed with a curve fitting program using a 4-parameter logistic dose response equation.
# [2] = CHO GLP-1R Clone C6 Assay 2: GLP-1R-mediated agonist activity was determined with a cell-based functional assay utilizing an HTRF (Homogeneous Time-Resolved Fluorescence) cAMP detection kit (cAMP HI Range Assay Kit; Cis Bio cat #62AM6PEJ) that measures cAMP levels in the cell. The method is a competitive immunoassay between native cAMP produced by the cells and exogenous cAMP labeled with the dye …
# Description: The method is a competitive immunoassay between native cAMP produced by the cells and exogenous cAMP labeled with the dye d2. The tracer binding is visualized by a mAb anti-cAMP labeled with Cryptate. The specific signal (i.e. energy transfer) is inversely proportional to the concentration of cAMP in either a standard or an experimental sample.The human GLP-1R coding sequence (NCBI Reference Sequence NP_002053.3, including naturally-occurring variant Leu260Phe) was subcloned into pcDNA5-FRT-TO and a clonal CHO cell line stably expressing a low receptor density was isolated using the Flp-In™ T-Rex™ System, as described by the manufacturer (ThermoFisher). […] Following the 30 minute incubation, 10 μL of labeled d2 cAMP and 10 μL of anti-cAMP antibody (both diluted 1:20 in cell lysis buffer; as described in the manufacturer's assay protocol) were added to each well of the assay plate. […] Raw data were converted to nM cAMP by interpolation from a cAMP standard curve (as described in the manufacturer's assay protocol) and the percent effect was determined relative to a saturating concentration of the full agonist GLP-1 (1 μM) included on each plate. EC50 determinations were made from agonist dose response curves analyzed with a curve fitting program using a 4-parameter logistic dose response equation.
smiles,measurement,setting,value
COCCn1c([C@@H]2CC23CCN(c2cccc4c2OC(C)(c2ccc(Cl)cc2F)O4)CC3)nc2ccc(C(=O)OC)cc21 (some centres not stated),EC50,[1],> 18 µM
same,EC50,[2],> 20 µM
C[C@]1(c2ccc(Cl)cc2F)Oc2cccc(C3CCN(Cc4nc5ccc(C(=O)O)cc5n4Cc4ncco4)CC3)c2O1,EC50,[1],0.0045 µM
same,EC50,[2],0.038 µM
"COCCn1c(CN2CCC(c3cccc4c3OC(c3ccc(Cl)cc3F)O4)CC2)nc2ccc(C(=O)O)cc21 (single isomer, unassigned)",EC50,[2],> 20 µM
COCCn1c(CN2CCN(c3cccc4c3O[C@H](c3ccc(Cl)cc3F)O4)CC2)nc2ccc(C(=O)OC)cc21,EC50,[1],0.88 µM
same,EC50,[2],> 20 µM
COCCn1c(C2CC23CCN(c2cccc4c2OC(C)(c2ccc(Cl)cc2F)O4)CC3)nc2ccc(C(=O)O)cc21 (configuration not stated),EC50,[2],> 20 µM
COCCn1c([C@H]2CC23CCN(c2cccc4c2OC(C)(c2ccc(Cl)cc2F)O4)CC3)nc2ccc(C(=O)OC)cc21 (some centres not stated),EC50,[1],0.0077 µM
same,EC50,[2],0.12 µM
COCCn1c(CN2CCN(c3cccc4c3O[C@@H](c3ccc(Cl)cc3F)O4)CC2)nc2ccc(C(=O)OC)cc21,EC50,[1],0.0066 µM
same,EC50,[2],0.26 µM
